ChEMBL document CHEMBL3885881, “DrugMatrix”

Species on record: Rattus norvegicus
Assay: DrugMatrix - Regimen: Daily Repeat
Assay type: toxicity, organism-based, Sprague-Dawley
Set-up: regimen Daily Repeat, gender Male, age 6-8 weeks
Conditions: in vivo, po, route oral GAVAGE, vehicle .5 % CMC; for BASOPHIL / EOSINOPHIL / ERYTHROCYTE COUNT / HEMATOCRIT / HEMOGLOBIN / LEUKOCYTE COUNT / LYMPHOCYTE / MEAN CORPUSCULAR HEMOGLOBIN / MEAN CORPUSCULAR HEMOGLOBIN CONCENTRATION / MEAN CORPUSCULAR VOLUME / MONOCYTE / NEUTROPHIL / PLATELET COUNT: tissue Blood; for ALANINE AMINOTRANSFERASE / ALBUMIN / ALKALINE PHOSPHATASE / ASPARTATE AMINOTRANSFERASE / BLOOD UREA NITROGEN / CARBON DIOXIDE / CHLORIDE / CHOLESTEROL / CREATINE PHOSPHOKINASE / CREATININE / GLUCOSE / LACTATE DEHYDROGENASE / LIPASE / PHOSPHORUS / POTASSIUM / SODIUM / TOTAL BILIRUBIN / TOTAL PROTEIN / URIC ACID: tissue Plasma
[1] = 0 mg/kg, 72 h, dose level Control, time 3 day
[2] = 0 mg/kg, 120 h, dose level Control, time 5 day
[3] = 0 mg/kg, […], dose level Control, time 14 day
[4] = 82 mg/kg, 72 h, dose level High, time 3 day
[5] = 82 mg/kg, 120 h, dose level High, time 5 day
[6] = 82 mg/kg, […], dose level High, time 14 day

CCOP(=S)(OCC)Oc1nc(Cl)c(Cl)cc1Cl [CHLORPYRIFOS]
BASOPHIL [1]: 0.62%
EOSINOPHIL [1]: 0.52%
ERYTHROCYTE COUNT [1]: 6.33 x10E6/uL
HEMATOCRIT [1]: 41.88%
HEMOGLOBIN [1]: 13.52 G/DL
LEUKOCYTE COUNT [1]: 11.39 x10E3/uL
LYMPHOCYTE [1]: 86.18%
MEAN CORPUSCULAR HEMOGLOBIN [1]: 21.35 pg
MEAN CORPUSCULAR HEMOGLOBIN CONCENTRATION [1]: 32.23 G/DL
MEAN CORPUSCULAR VOLUME [1]: 66.25 fL
MONOCYTE [1]: 1.93%
NEUTROPHIL [1]: 9.1%
PLATELET COUNT [1]: 1204.5 x10E3/uL
ALANINE AMINOTRANSFERASE [1]: 43 u/L
ALBUMIN [1]: 4.08 G/DL
ALKALINE PHOSPHATASE [1]: 426.33 u/L
ASPARTATE AMINOTRANSFERASE [1]: 72.5 u/L
BLOOD UREA NITROGEN [1]: 16.67 mg/dL
CARBON DIOXIDE [1]: 28.33 mmol/L
CHLORIDE [1]: 103.5 MEQ/L
CHOLESTEROL [1]: 78.83 mg/dL
CREATINE PHOSPHOKINASE [1]: 325.67 u/L
CREATININE [1]: 0.48 mg/dL
GLUCOSE [1]: 171.67 mg/dL
LACTATE DEHYDROGENASE [1]: 107.33 u/L
LIPASE [1]: 11.83 u/L
PHOSPHORUS [1]: 12.55 mg/dL
POTASSIUM [1]: 6.57 MEQ/L
SODIUM [1]: 145.67 MEQ/L
TOTAL BILIRUBIN [1]: 0.42 mg/dL
TOTAL PROTEIN [1]: 6.1 G/DL
URIC ACID [1]: 1.57 mg/dL
BASOPHIL [2]: 0.48%
EOSINOPHIL [2]: 0.67%
ERYTHROCYTE COUNT [2]: 6.69 x10E6/uL
HEMATOCRIT [2]: 44.17%
HEMOGLOBIN [2]: 13.78 G/DL
LEUKOCYTE COUNT [2]: 7.86 x10E3/uL
LYMPHOCYTE [2]: 85.9%
MEAN CORPUSCULAR HEMOGLOBIN [2]: 20.6 pg
MEAN CORPUSCULAR HEMOGLOBIN CONCENTRATION [2]: 31.25 G/DL
MEAN CORPUSCULAR VOLUME [2]: 65.9 fL
MONOCYTE [2]: 3.27%
NEUTROPHIL [2]: 8.67%
PLATELET COUNT [2]: 1182.33 x10E3/uL
ALANINE AMINOTRANSFERASE [2]: 37.5 u/L
ALBUMIN [2]: 4 G/DL
ALKALINE PHOSPHATASE [2]: 348.17 u/L
ASPARTATE AMINOTRANSFERASE [2]: 71.67 u/L
BLOOD UREA NITROGEN [2]: 13 mg/dL
CARBON DIOXIDE [2]: 27 mmol/L
CHLORIDE [2]: 104.67 MEQ/L
CHOLESTEROL [2]: 73.33 mg/dL
CREATINE PHOSPHOKINASE [2]: 211.33 u/L
CREATININE [2]: 0.23 mg/dL
GLUCOSE [2]: 155 mg/dL
LACTATE DEHYDROGENASE [2]: 133.83 u/L
LIPASE [2]: 11.17 u/L
PHOSPHORUS [2]: 14.53 mg/dL
POTASSIUM [2]: 6.65 MEQ/L
SODIUM [2]: 148.17 MEQ/L
TOTAL BILIRUBIN [2]: 0.28 mg/dL
TOTAL PROTEIN [2]: 6.22 G/DL
URIC ACID [2]: 1.57 mg/dL
BASOPHIL [3]: 0.97%
EOSINOPHIL [3]: 0.8%
ERYTHROCYTE COUNT [3]: 7.02 x10E6/uL
HEMATOCRIT [3]: 44.43%
HEMOGLOBIN [3]: 14.58 G/DL
LEUKOCYTE COUNT [3]: 16.49 x10E3/uL
LYMPHOCYTE [3]: 79.03%
MEAN CORPUSCULAR HEMOGLOBIN [3]: 20.85 pg
MEAN CORPUSCULAR HEMOGLOBIN CONCENTRATION [3]: 32.78 G/DL
MEAN CORPUSCULAR VOLUME [3]: 63.57 fL
MONOCYTE [3]: 1.9%
NEUTROPHIL [3]: 15.18%
PLATELET COUNT [3]: 1184.33 x10E3/uL
ALANINE AMINOTRANSFERASE [3]: 43 u/L
ALBUMIN [3]: 4.25 G/DL
ALKALINE PHOSPHATASE [3]: 409.67 u/L
ASPARTATE AMINOTRANSFERASE [3]: 84.17 u/L
BLOOD UREA NITROGEN [3]: 16 mg/dL
CARBON DIOXIDE [3]: 35.17 mmol/L
CHLORIDE [3]: 99.83 MEQ/L
CHOLESTEROL [3]: 68.67 mg/dL
CREATINE PHOSPHOKINASE [3]: 384.17 u/L
CREATININE [3]: 0.43 mg/dL
GLUCOSE [3]: 160 mg/dL
LACTATE DEHYDROGENASE [3]: 115.33 u/L
LIPASE [3]: 17.33 u/L
PHOSPHORUS [3]: 10.68 mg/dL
POTASSIUM [3]: 6.48 MEQ/L
SODIUM [3]: 148.17 MEQ/L
TOTAL BILIRUBIN [3]: 0.45 mg/dL
TOTAL PROTEIN [3]: 6.57 G/DL
URIC ACID [3]: 1.78 mg/dL
BASOPHIL [4]: 0.9%
EOSINOPHIL [4]: 0.43%
ERYTHROCYTE COUNT [4]: 6.87 x10E6/uL
HEMATOCRIT [4]: 44.5%
HEMOGLOBIN [4]: 14.33 G/DL
LEUKOCYTE COUNT [4]: 11.45 x10E3/uL
LYMPHOCYTE [4]: 88.3%
MEAN CORPUSCULAR HEMOGLOBIN [4]: 20.9 pg
MEAN CORPUSCULAR HEMOGLOBIN CONCENTRATION [4]: 32.27 G/DL
MEAN CORPUSCULAR VOLUME [4]: 64.87 fL
MONOCYTE [4]: 1.27%
NEUTROPHIL [4]: 7.87%
PLATELET COUNT [4]: 1233 x10E3/uL
ALANINE AMINOTRANSFERASE [4]: 42 u/L
ALBUMIN [4]: 4.03 G/DL
ALKALINE PHOSPHATASE [4]: 285.67 u/L
ASPARTATE AMINOTRANSFERASE [4]: 78.33 u/L
BLOOD UREA NITROGEN [4]: 15.33 mg/dL
CARBON DIOXIDE [4]: 30.33 mmol/L
CHLORIDE [4]: 103.67 MEQ/L
CHOLESTEROL [4]: 47 mg/dL
CREATINE PHOSPHOKINASE [4]: 263.33 u/L
CREATININE [4]: 0.5 mg/dL
GLUCOSE [4]: 170 mg/dL
LACTATE DEHYDROGENASE [4]: 57.67 u/L
LIPASE [4]: 11 u/L
PHOSPHORUS [4]: 13.43 mg/dL
POTASSIUM [4]: 7.33 MEQ/L
SODIUM [4]: 146 MEQ/L
TOTAL BILIRUBIN [4]: 0.37 mg/dL
TOTAL PROTEIN [4]: 5.93 G/DL
URIC ACID [4]: 1.53 mg/dL
BASOPHIL [5]: 0.33%
EOSINOPHIL [5]: 0.5%
ERYTHROCYTE COUNT [5]: 7.39 x10E6/uL
HEMATOCRIT [5]: 47.37%
HEMOGLOBIN [5]: 15.03 G/DL
LEUKOCYTE COUNT [5]: 10.09 x10E3/uL
LYMPHOCYTE [5]: 72.77%
MEAN CORPUSCULAR HEMOGLOBIN [5]: 20.37 pg
MEAN CORPUSCULAR HEMOGLOBIN CONCENTRATION [5]: 31.73 G/DL
MEAN CORPUSCULAR VOLUME [5]: 64.2 fL
MONOCYTE [5]: 4.53%
NEUTROPHIL [5]: 20.93%
PLATELET COUNT [5]: 1284.67 x10E3/uL
ALANINE AMINOTRANSFERASE [5]: 55.33 u/L
ALBUMIN [5]: 3.9 G/DL
ALKALINE PHOSPHATASE [5]: 305.67 u/L
ASPARTATE AMINOTRANSFERASE [5]: 236.67 u/L
BLOOD UREA NITROGEN [5]: 13 mg/dL
CARBON DIOXIDE [5]: 28.33 mmol/L
CHLORIDE [5]: 103.67 MEQ/L
CHOLESTEROL [5]: 44.67 mg/dL
CREATINE PHOSPHOKINASE [5]: 186.67 u/L
CREATININE [5]: 0.33 mg/dL
GLUCOSE [5]: 139.33 mg/dL
LACTATE DEHYDROGENASE [5]: 62.67 u/L
LIPASE [5]: 8 u/L
PHOSPHORUS [5]: 12.8 mg/dL
POTASSIUM [5]: 6 MEQ/L
SODIUM [5]: 148 MEQ/L
TOTAL BILIRUBIN [5]: 0.27 mg/dL
TOTAL PROTEIN [5]: 6 G/DL
URIC ACID [5]: 1.63 mg/dL
BASOPHIL [6]: 0.37%
EOSINOPHIL [6]: 0.67%
ERYTHROCYTE COUNT [6]: 7.6 x10E6/uL
HEMATOCRIT [6]: 45.9%
HEMOGLOBIN [6]: 15.3 G/DL
LEUKOCYTE COUNT [6]: 16.12 x10E3/uL
LYMPHOCYTE [6]: 84.43%
MEAN CORPUSCULAR HEMOGLOBIN [6]: 20.2 pg
MEAN CORPUSCULAR HEMOGLOBIN CONCENTRATION [6]: 33.37 G/DL
MEAN CORPUSCULAR VOLUME [6]: 60.43 fL
MONOCYTE [6]: 1.7%
NEUTROPHIL [6]: 11.33%
PLATELET COUNT [6]: 1183 x10E3/uL
ALANINE AMINOTRANSFERASE [6]: 46 u/L
ALBUMIN [6]: 4.3 G/DL
ALKALINE PHOSPHATASE [6]: 329.67 u/L
ASPARTATE AMINOTRANSFERASE [6]: 114 u/L
BLOOD UREA NITROGEN [6]: 16.33 mg/dL
CARBON DIOXIDE [6]: 26.67 mmol/L
CHLORIDE [6]: 101 MEQ/L
CHOLESTEROL [6]: 72 mg/dL
CREATINE PHOSPHOKINASE [6]: 262 u/L
CREATININE [6]: 0.43 mg/dL
GLUCOSE [6]: 144 mg/dL
LACTATE DEHYDROGENASE [6]: 145.67 u/L
LIPASE [6]: 9 u/L
PHOSPHORUS [6]: 10.07 mg/dL
POTASSIUM [6]: 6.2 MEQ/L
SODIUM [6]: 149 MEQ/L
TOTAL BILIRUBIN [6]: 0.4 mg/dL
URIC ACID [6]: 1.8 mg/dL
